Laboratory results from ChEMBL document CHEMBL1201862, “PubChem BioAssay data set” (2004).
Where a name gives a salt, the structure may show the parent alone.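 Cultured in 96-well plates, cells were exposed to test compound for 48 hours across five concentrations. Abbreviation: GI50, concentration required for 50% inhibition of growth.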 Active and inactive are the calls of the source. Cut-off read from the data, not from the text of the source: active = GI50 up to about 1.1 µM and inactive = higher.

How the values were obtained:
Assay in all cases: growth of human tumour cells (NCI), 48 h
[1] = test system: 786-0
[2] = test system: A498
[3] = test system: ACHN
[4] = test system: COLO 205
[5] = test system: DU-145
[6] = test system: EKVX
[7] = test system: HCT-116
[8] = test system: HL-60
[9] = test system: HOP-62
[10] = test system: MDA-MB-435
[11] = test system: MOLT-4
[12] = test system: OVCAR-3
[13] = test system: OVCAR-5
[14] = test system: RPMI-8226
[15] = test system: SF-268
[16] = test system: SF-539
[17] = test system: SNB-19
[18] = test system: SNB-75
[19] = test system: SW-620
[20] = test system: HCC 2998

Row | Compound | GI50 [1] | GI50 [2] | GI50 [3] | GI50 [4] | GI50 [5] | GI50 [6] | GI50 [7] | GI50 [8] | GI50 [9] | GI50 [10] | GI50 [11] | GI50 [12] | GI50 [13] | GI50 [14] | GI50 [15] | GI50 [16] | GI50 [17] | GI50 [18] | GI50 [19] | GI50 [20]
1 | NCCN1C(=O)c2ccccc2C1(O)c1ccc(Cl)cc1 (stereo not drawn) | 17.2 µM (inactive) | 14.2 µM (inactive) | 23 µM (inactive) | 19.6 µM (inactive) | 33.9 µM (inactive) | 21.3 µM (inactive) | 17.8 µM (inactive) | 52.8 µM (inactive) | 24.2 µM (inactive) | 15.3 µM (inactive) | 17.3 µM (inactive) | 23.6 µM (inactive) | 19.7 µM (inactive) | 17.3 µM (inactive) | 27.1 µM (inactive) | 21.6 µM (inactive) | 23.1 µM (inactive) | 21.9 µM (inactive) | 18.5 µM (inactive) | 
2 | COc1ccc(OC)c2c(C)ccnc12 | 22.3 µM (inactive) | 56.8 µM (inactive) | 18.3 µM (inactive) | 39.5 µM (inactive) | 24.1 µM (inactive) | 14.3 µM (inactive) | 6.31 µM (inactive) |  | 9.75 µM (inactive) | 25.7 µM (inactive) |  | 2.99 µM (inactive) | 46.1 µM (inactive) | 32.9 µM (inactive) | 9.89 µM (inactive) |  | 19.9 µM (inactive) | 33.1 µM (inactive) | 10.5 µM (inactive) | > 95.5 µM (inactive)
3 | O=C1COc2cccnc2N1CCCCO | > 100 µM (inactive) | > 100 µM (inactive) | > 100 µM (inactive) |  | > 100 µM (inactive) | > 100 µM (inactive) | > 100 µM (inactive) | > 100 µM (inactive) | > 100 µM (inactive) | > 100 µM (inactive) | > 100 µM (inactive) | > 100 µM (inactive) | > 100 µM (inactive) | > 100 µM (inactive) |  | > 100 µM (inactive) | > 100 µM (inactive) | > 100 µM (inactive) | > 100 µM (inactive) | 
4 | CC(=O)C(=N\Nc1ccc(Cl)cc1)/C(C)=N/c1ccc(C)cc1 | 37.2 µM (inactive) | 11.9 µM (inactive) | 21.9 µM (inactive) | 21.3 µM (inactive) | 30.8 µM (inactive) | 21.3 µM (inactive) | 36.8 µM (inactive) |  | > 10 µM (inactive) | 30.4 µM (inactive) | 16.7 µM (inactive) | 24.6 µM (inactive) | 34 µM (inactive) | 18.7 µM (inactive) | 35.6 µM (inactive) |  | 63.1 µM (inactive) | 44 µM (inactive) | 41.6 µM (inactive) | 
5 | CCOC(=O)c1nnsc1NN | 39.3 µM (inactive) |  | > 100 µM (inactive) | > 100 µM (inactive) | > 100 µM (inactive) | > 100 µM (inactive) | 55.5 µM (inactive) | 10.5 µM (inactive) | > 100 µM (inactive) | > 100 µM (inactive) | 34 µM (inactive) | > 100 µM (inactive) | > 100 µM (inactive) |  | > 100 µM (inactive) | > 100 µM (inactive) | > 100 µM (inactive) | > 100 µM (inactive) | > 100 µM (inactive) | > 100 µM (inactive)
6 | COc1ccccc1N1C(=O)CSC1c1cccc(Oc2ccccc2)c1 (stereo not drawn) | 17.7 µM (inactive) | 20.7 µM (inactive) | 20.9 µM (inactive) | 18.6 µM (inactive) | 18.7 µM (inactive) | 17.2 µM (inactive) | 17.6 µM (inactive) | 20.9 µM (inactive) | 20.1 µM (inactive) | 9.82 µM (inactive) | 29.9 µM (inactive) | 21.1 µM (inactive) | 18.5 µM (inactive) |  | 17.5 µM (inactive) | 17.2 µM (inactive) | 23.8 µM (inactive) | 18.7 µM (inactive) | 21.9 µM (inactive) | 
7 | O=C1CCCC(=O)N1n1c(Cc2ccccc2)n[nH]c1=O | > 100 µM (inactive) | > 100 µM (inactive) | > 100 µM (inactive) | > 100 µM (inactive) | > 100 µM (inactive) | > 100 µM (inactive) | > 100 µM (inactive) | > 100 µM (inactive) | > 100 µM (inactive) | > 100 µM (inactive) | > 100 µM (inactive) | > 100 µM (inactive) | > 100 µM (inactive) | > 100 µM (inactive) | > 100 µM (inactive) |  |  | > 100 µM (inactive) | > 100 µM (inactive) | 
8 | COC(=O)C(N)CCCC(N)C(=O)NC(C)C(=O)NC(CCC(=O)NCCNCCNc1c2ccccc2nc2cccc([N+](=O)[O-])c12)C(N)=O (stereo not drawn) | 5.12 µM (inactive) | 17.4 µM (inactive) | 10.2 µM (inactive) | 6.28 µM (inactive) | 6.28 µM (inactive) | 10.2 µM (inactive) | 4.63 µM (inactive) |  | 19 µM (inactive) | 6.93 µM (inactive) | 3.5 µM (inactive) | 12.3 µM (inactive) | 35.2 µM (inactive) | 5.32 µM (inactive) | 2.44 µM (inactive) | 5.19 µM (inactive) | 18.5 µM (inactive) | 10.4 µM (inactive) | 9.86 µM (inactive) | 8.34 µM (inactive)
9 | COc1ccc(/N=N/c2c(C)c(C#N)c(=S)n(C3OC(COC(C)=O)C(OC(C)=O)C(OC(C)=O)C3OC(C)=O)c2C)cc1 (stereo not drawn) | 22.5 µM (inactive) |  | > 100 µM (inactive) | > 100 µM (inactive) | > 100 µM (inactive) |  | > 100 µM (inactive) | > 100 µM (inactive) | 64.3 µM (inactive) | > 10 µM (inactive) | > 100 µM (inactive) | > 100 µM (inactive) | > 100 µM (inactive) | > 100 µM (inactive) | > 100 µM (inactive) | > 100 µM (inactive) | > 100 µM (inactive) | 16.1 µM (inactive) | > 100 µM (inactive) | > 100 µM (inactive)
10 | COC(=O)[C@H](Cc1ccccc1)NC(=O)OCC1OC(n2cc(C)c(=O)[nH]c2=O)CC1N=[N+]=[N-] (stereo partly drawn) | > 100 µM (inactive) |  | 86.1 µM (inactive) | > 100 µM (inactive) | > 100 µM (inactive) | > 100 µM (inactive) | > 100 µM (inactive) | > 100 µM (inactive) | > 100 µM (inactive) | > 100 µM (inactive) | > 100 µM (inactive) | > 100 µM (inactive) | > 100 µM (inactive) | > 100 µM (inactive) | > 100 µM (inactive) |  | > 100 µM (inactive) | 78.3 µM (inactive) | > 100 µM (inactive) | > 100 µM (inactive)
11 | CC1(C)CCCCCCC2CC2CCCCCC(C)(C)C1=O (stereo not drawn) | 64 µM (inactive) | > 100 µM (inactive) | > 100 µM (inactive) | 63.1 µM (inactive) | > 100 µM (inactive) | 41.9 µM (inactive) | 39.1 µM (inactive) | 16.6 µM (inactive) | > 100 µM (inactive) | 49.9 µM (inactive) | 33.5 µM (inactive) | 76.4 µM (inactive) | > 100 µM (inactive) | 24.4 µM (inactive) | > 100 µM (inactive) | > 100 µM (inactive) | > 100 µM (inactive) | > 100 µM (inactive) | > 100 µM (inactive) | 
12 | CC(OC(=O)NCn1cc(-c2ccccc2)nn1)c1ccccc1 (stereo not drawn) | 88.7 µM (inactive) |  | 61.2 µM (inactive) | 34.6 µM (inactive) | 42.1 µM (inactive) | 63.2 µM (inactive) | 27.9 µM (inactive) | 27.8 µM (inactive) | > 100 µM (inactive) | 28.8 µM (inactive) | 20.8 µM (inactive) |  | 49.3 µM (inactive) | 30.2 µM (inactive) |  | 38.9 µM (inactive) | > 100 µM (inactive) |  | 58.7 µM (inactive) | 39.2 µM (inactive)
13 | COc1cc2c(c(OC)c1OC)C(=O)[C@@H]1[C@H]2N1C(N)=O | > 100 µM (inactive) |  | 61.1 µM (inactive) | 91.2 µM (inactive) | 61.4 µM (inactive) | > 100 µM (inactive) | > 100 µM (inactive) | > 100 µM (inactive) | > 100 µM (inactive) | > 100 µM (inactive) | > 100 µM (inactive) | > 100 µM (inactive) | 87.3 µM (inactive) | > 100 µM (inactive) | > 100 µM (inactive) | > 100 µM (inactive) | > 100 µM (inactive) | 66.2 µM (inactive) | > 100 µM (inactive) | 68.4 µM (inactive)
14 | COc1cc(/C=C/C(=O)OCCc2ccccc2)ccc1O | 15.7 µM (inactive) |  | 18.5 µM (inactive) | 19.4 µM (inactive) | 16.6 µM (inactive) | 16.3 µM (inactive) | 17.7 µM (inactive) | 0.352 µM (active) | 16.3 µM (inactive) | 13.4 µM (inactive) | 14.5 µM (inactive) | 18.1 µM (inactive) | 18.2 µM (inactive) | 20.5 µM (inactive) | 20.5 µM (inactive) | 18.6 µM (inactive) | 17.9 µM (inactive) | 15.2 µM (inactive) | 22.2 µM (inactive) | 21 µM (inactive)
15 | Oc1ccc(C(O)C2CCCCN2)cc1O (stereo not drawn) [RIMITEROL HYDROBROMIDE] | 18.9 µM (inactive) | > 100 µM (inactive) | > 100 µM (inactive) | > 100 µM (inactive) | > 100 µM (inactive) | > 100 µM (inactive) | > 100 µM (inactive) |  | > 100 µM (inactive) | > 100 µM (inactive) |  | > 100 µM (inactive) | > 100 µM (inactive) | 54.7 µM (inactive) | > 100 µM (inactive) | > 100 µM (inactive) | > 100 µM (inactive) | > 100 µM (inactive) | 46.7 µM (inactive) | 
